From ChEMBL document CHEMBL2021758, “Synthesis of indolizidinone analogues of cytotoxic alkaloids: monocyclic precursors are also active” (2012)
Active and inactive are the calls of the source. The calls are words filed in the database; no cut-off is given here.

What was measured:
[1] = system: MCF7; assay: Cytotoxicity against human MCF7 cells assessed as reduction of cell viability at 30 uM after 48 hrs; format: functional
[2] = system: SH-SY5Y; assay: Cytotoxicity against human SH-SY5Y cells assessed as reduction of cell viability at 30 uM after 48 hrs; format: functional
[3] = system: MCF7; assay: Cytotoxicity against human MCF7 cells assessed as reduction of cell viability at 10 uM after 24 hrs; format: functional, cell-based
[4] = system: SH-SY5Y; assay: Cytotoxicity against human SH-SY5Y cells assessed as reduction of cell viability at 10 uM after 24 hrs; format: functional, cell-based
[5] = system: MCF7; assay: Cytotoxicity against human MCF7 cells assessed as reduction of cell viability at 20 uM after 24 hrs; format: functional, cell-based
[6] = system: SH-SY5Y; assay: Cytotoxicity against human SH-SY5Y cells assessed as reduction of cell viability at 20 uM after 24 hrs; format: functional, cell-based
[7] = system: MCF7; assay: Induction of morphological changes in human MCF7 cells assessed as increase in volume of nucleus at 30 uM after 6 hrs; format: functional, cell-based
[8] = system: MCF7; assay: Induction of morphological changes in human MCF7 cells assessed as increase in refringency of the nucleoli at 30 uM after 6 hrs; format: functional, cell-based
[9] = system: MCF7; assay: Induction of morphological changes in human MCF7 cells assessed as cytoplasm vacuolization at 30 uM after 6 hrs; format: functional, cell-based
[10] = system: MCF7; assay: Induction of morphological changes in human MCF7 cells assessed as cell swelling at 30 uM after 6 hrs; format: functional, cell-based
[11] = system: MCF7; assay: Induction of morphological changes in human MCF7 cells at 30 uM after 24 hrs; format: functional, cell-based
[12] = system: SH-SY5Y; assay: Induction of morphological changes in human SH-SY5Y cells assessed as increase in volume of nucleus at 30 uM after 6 hrs; format: functional, cell-based
[13] = system: SH-SY5Y; assay: Induction of morphological changes in human SH-SY5Y cells assessed as increase in refringency of the nucleoli at 30 uM after 6 hrs; format: functional, cell-based
[14] = system: SH-SY5Y; assay: Induction of morphological changes in human SH-SY5Y cells assessed as cytoplasm vacuolization at 30 uM after 6 hrs; format: functional, cell-based
[15] = system: SH-SY5Y; assay: Induction of morphological changes in human SH-SY5Y cells assessed as cell swelling at 30 uM after 6 hrs; format: functional, cell-based
[16] = system: MCF7; assay: Induction of morphological changes in human MCF7 cells assessed as change in cell shape at 30 uM after 48 hrs; format: functional, cell-based
[17] = system: SH-SY5Y; assay: Induction of morphological changes in human SH-SY5Y cells assessed as change in cell shape at 30 uM after 48 hrs; format: functional, cell-based
[18] = system: MCF7; assay: Induction of morphological changes in human MCF7 cells assessed as change in perimeter of cell at 30 uM after 48 hrs; format: functional, cell-based
[19] = system: SH-SY5Y; assay: Induction of morphological changes in human SH-SY5Y cells assessed as change in perimeter of cell at 30 uM after 48 hrs; format: functional, cell-based
[20] = system: MCF7; assay: Induction of morphological changes in human MCF7 cells assessed as change in volume of cell at 30 uM after 48 hrs; format: functional, cell-based
[21] = system: SH-SY5Y; assay: Induction of morphological changes in human SH-SY5Y cells assessed as change in volume of cell at 30 uM after 48 hrs; format: functional, cell-based

| SMILES | Activity [1] | Activity [2] | Activity [3] | Activity [4] | Activity [5] | Activity [6] | also measured |
| --- | --- | --- | --- | --- | --- | --- | --- |
| O=C1C(c2ccccc2)=C(c2ccc(-c3ccccc3)cc2)C[C@@H]2C[C@@H](O)CN12 | >70% | >70% | Active | Active | Active | Active | – |
| O=C1C(c2ccccc2)=C(c2ccccc2)C[C@@H]2C[C@@H](O)CN12 | Active | Active | Active | Active | Active | Active | – |
| O=C(C[C@H]1C[C@@H](O)CN1C(=O)Cc1ccccc1)c1ccc(-c2ccccc2)cc1 | – | – | Active | Active | – | – | Activity [7]: Active; Activity [8]: Active; Activity [9]: Active; Activity [10]: Active; Activity [11]: Active; Activity [12]: Active; Activity [13]: Active; Activity [14]: Active; Activity [15]: Active |
| COc1ccc(C2=C(c3ccccc3)C(=O)N3C[C@H](O)C[C@@H]3C2)cc1 | Active | – | Active | Active | Active | Active | – |
| O=C1C(c2ccccc2)=C(c2ccc(Br)cc2)C[C@@H]2C[C@@H](O)CN12 | Active | Active | Active | Active | Active | Active | – |
| O=C1C(c2ccccc2)=C(c2ccccc2)C[C@H]2C[C@@H](O)CN12 | Active | Active | Active | Active | Active | Active | – |
| Cn1cccc1C1=C(c2ccccc2)C(=O)N2C[C@H](O)C[C@@H]2C1 | Active | Active | Active | Active | Active | Active | – |
| Cn1cccc1C1=C(c2ccccc2)C(=O)N2C[C@H](O)C[C@H]2C1 | Active | Active | Active | Active | Active | Active | – |
| COc1ccc(C2=C(c3ccccc3)C(=O)N3C[C@H](O)C[C@H]3C2)cc1 | Active | Active | Active | Active | Active | Active | – |
| O=C1C(c2ccccc2)=C(c2ccc(Br)cc2)C[C@H]2C[C@@H](O)CN12 | Active | – | Active | Active | Active | Active | – |
| O=C1C(c2ccccc2)=C(c2ccc(-c3ccccc3)cc2)C[C@H]2C[C@@H](O)CN12 | >70% | >70% | Active | Active | Active | Active | Activity [16]: Active; Activity [17]: Active; Activity [18]: Active; Activity [19]: Active; Activity [20]: Active; Activity [21]: Active |
| O=C(C[C@@H]1C[C@@H](O)CN1C(=O)Cc1ccccc1)c1ccc(-c2ccccc2)cc1 | – | – | Active | Active | – | – | – |
